Experimental data reported in US20100280117A1 (Xanodyne Pharmaceuticals, Inc., priority 2009, published 2010).

Legend:
women with menorrhagia [1] = test: Example VII double-blind placebo-controlled clinical study, three treated menstrual periods; details: for proportion of responders (reduction in MBL and meaningful improvement, MI measure 6c): after first treated cycle, p<0.0001 vs placebo
Description: (§1) This was a multi-center, double-blind, placebo-controlled, parallel-group study.
The primary objective of the study was to determine the efficacy of a 1.95 gm/day of tranexamic acid (650 mg orally three times daily, TID) and 3.9 gm/day of tranexamic acid (1.3 gm orally three times daily, TID) administered during menstruation for up to 5 days (maximum of 15 doses) to reduce menstrual blood loss in women with objective evidence of heavy menstrual bleeding.
The secondary objective of the study was to determine the improvement with administration of 1.95 gm/day or 3.9 gm/day of tranexamic acid in women with heavy menstrual bleeding in their symptoms including, Limitation in Social Leisure Activities (LSLA) and Limitation in Physical Activities (LPA) scores from the Menorrhagia Instrument Measures (FIG. 1). Further the objective was to determine the safety of the 1.95 gm/day and 3.9 gm/day of the modified release tranexamic acid formulation administered during menstruation.
All periods were evaluated for the secondary endpoints, and for safety of tranexamic acid at an oral dose of 1.3 gm or placebo administered three (3) times daily for up to five consecutive (5) days (maximum of 15 doses) during menstruation.
Menstrual blood loss (MBL) was assessed during the entire menstrual period by the alkaline hematin test (AHT) method. The Menorrhagia Instrument Measures (FIG. 1) were also administered immediately after each menstrual period under investigation. For the Primary Endpoint, the objective reduction in menstrual blood loss (MBL) during the entire menstrual period as assessed by the AHT Method was assessed.
For the Secondary Endpoints, the scores for Limitation in Social Leisure Activities (LSLA) and the scores for Limitation in Physical Activities (LPA) from the Menorrhagia Instrument Measures (MI), measures #4 and #3, respectively) were assessed.
For the Secondary Endpoints the data collected included at least; Menstrual Blood Loss (MBL) assessment score (MI measure 1), Limitation in Work Outside or Inside the Home (LWH) score (MI item 2), and subject assessment of meaningfulness score from the MI (measure 6) (used for the MBL responder analysis).
(§2) The efficacy results were based on the modified ITT (mITT) populations.

[2] = Randomized single-dose 4-way crossover bioequivalence/bioavailability study, fasting; design: species or system human (healthy female volunteers); details: female, human, in vivo, iv
heavy menstrual bleeding [3] = details: open label uncontrolled, 849 patients; cited from earlier work
heavy menstrual bleeding [4] = details: cited from earlier work
women with menorrhagia [5] = test: Example VIII double-blind placebo-controlled clinical study, six treated menstrual periods
Description: as §1
Menstrual blood loss (MBL) was assessed during the entire menstrual period by the alkaline hematin test (AHT) method. Measures from the Menorrhagia Instrument (FIG. 1) were also administered immediately after each menstrual period under investigation. Subjects reported large stains exceeding the capacity of sanitary protection (and other patient reported outcome [PRO] items) during the menstrual period in daily diaries.
For the Primary Endpoint, the objective reduction in menstrual blood loss (MBL) during the entire menstrual period as assessed by the AHT Method was assessed.
For the Secondary Endpoints, the Limitation in Social Leisure Activities (LSLA) and the Limitation in Physical Activities (LPA) scores from the Menorrhagia Instrument (MI measures #4 and #3, respectively) and the total number of large stains responder analysis during the menstrual period from subject diaries were assessed.
For the Secondary Endpoints, assessment of the following were included, Menstrual Blood Loss (MBL) assessment score (MI measure #1), Limitation in Work Outside or Inside the Home (LWH) score (MI measure #2), and subject assessment of meaningfulness score from the MI (Measure #6) (used for the MBL responder analysis).
as §2

[6] = system: patients diagnosed with menorrhagia; test: Menorrhagia Instrument (MI) validation sub-study, treatment cohort; type: in vivo, human (women)
Description: The MI was evaluated in a sub population of patients enrolled in a clinical trial designed to assess the safety and efficacy of tranexamic acid at an oral dose of 3.9 g administered daily for up to 5 days during each menstrual period. Two groups of patients were used to assess the MI, one group of patients were those diagnosed with menorrhagia and undergoing treatment. The second group was an age matched normal group. The sub-study was designed: to collect sufficient quantitative data to support the construct-related validation of the MI measures; to collect sufficient quantitative data to support the assessment of meaningful/important change in blood loss to the women; to conduct a test/retest evaluation of the instrument, and to address the reliability of the MI measures.
A total of 262 women completed the MI. […] The MI measures 1-5 were administered at baseline and at the subsequent first and second non-treatment periods for the subjects in the normal cohort The MI measure 6 was administered and data collected, at Month 1 and Month 2. The Ruta Menorrhagia Questionnaire, SF-36 Health Survey and the MI were completed by the subject before visit procedures were performed. A subset of at least 50 subjects were asked to return to the study site 7 to 10 days after the baseline Visit but before the next menstrual period starts to complete the MI a second time.
A total of 177 patients were enrolled into the sub-study. […] The 149 patients remaining were intended to be age matched. The majority of patients in the study were in their late 30's or early 40's. Because of the difficulty of enrolling sufficient numbers of women with normal menstrual periods in this age bracket 18 evaluable patients were not age matched. A total of 131 evaluable patients were age matched. A sub-set of 80 evaluable patients participated in the test/retest segment of the validation. Of these patients 11 were evaluable but not age matched. Data from all 80 patients were used for statistical evaluation of the test/re-test correlations.
The following Measures were summarized and statistically analyzed: • MI measure1—Blood Loss Rating • MI measure 2—Limitation of Work Outside or Inside the Home • MI measure 3—Limitation of Physical Activities • MI measure 4—Limitation of Social or Leisure Activities • MI measure 6/6a/6b—Menstrual Blood Loss During Last Period • MI measure 6c—Meaningfulness of Change in Menstrual Blood Loss
The MI consisted of 4 individual measures (1-4) that were analyzed separately for validation. No summative scale was derived. […] Measures 6, 6a and 6b dealt with menstrual blood loss relative to the previous menstrual period. The answers to the measures in the subparts of measure 6, were combined to produce a 15 point rating scale. The scale values range from −7 to +7 with −7 representing a very great deal worse menstrual blood loss than the previous period, and +7 representing a very great deal better menstrual blood loss than the previous period. The midpoint (0) represents the perception of about the same menstrual blood loss as the previous period.
The ability to detect change required that values for the item or instrument change when the concept it measures changed. In order to measure the MI items ability to detect change, longitudinal data were evaluated focusing primarily on the changes from baseline to month 1. Differences in proportions and comparisons between treatment and normal groups were compared using chi-square statistics (the Stuart-Maxwell test testing marginal homogeneity for all categories simultaneously). […] The Cohen Effect Size was computed by taking the mean change in measure score (baseline to month 1) and dividing that by the standard deviation of mean baseline score.^2 ^2 Cohen, J. J. (1988). Statistical power analysis for the behavioral sciences (p. 8). Erlbaum: Hillsdale, N.J.

[7] = 3.9 g/day compared with placebo
[8] = treatment group, 3.9 g daily, score 1-5, n 126
[9] = treatment group, baseline to month 1
[10] = treatment group, Cohen effect size
[11] = women on treatment who reported a meaningful improvement

NC[C@H]1CC[C@H](C(=O)O)CC1 [tranexamic acid]
clinical relevance of mean reduction in menstrual blood loss (criteria: >50 mL; at least 36 mL meaningful) (women with menorrhagia [1]; 1.9 and 3.9 g/day): met both criteria for a clinically meaningful result
proportion of responders (reduction in MBL and meaningful improvement, MI measure 6c) (women with menorrhagia [1]; 1.95 g/day): 58.3%
LWH (MI measure 2) (women with menorrhagia [1]; [7]): significantly reduced
subjects' assessment of MBL (MI item 1) (women with menorrhagia [1]; [7]): significantly reduced
proportion of responders (reduction in MBL and meaningful improvement, MI measure 6c) (women with menorrhagia [1]; 3.9 g/day): 71.0%
mean LPA score, change from baseline (women with menorrhagia [1]; Limitation in Physical Activities, MI measure 3): Significant treatment-related reductions
mean LSLA score, change from baseline (women with menorrhagia [1]; Limitation in Social Leisure Activities, MI measure 4): Significant treatment-related reductions
clearance [2]: 137 mL/min
half-life [2]: 10.2 h
women satisfied with the treatment (heavy menstrual bleeding [3]): 80%
efficacy in the treatment of HMB (heavy menstrual bleeding [4]; doses of ˜4 g/day (typically 1 g every 6 hours), immediate-release): effective
side effects (heavy menstrual bleeding [4]; doses of ˜4 g/day (typically 1 g every 6 hours)): few side effects
reduction of heavy menstrual bleeding (heavy menstrual bleeding [4]; research from European countries): 40-50%
LWH (MI measure #2) (women with menorrhagia [5]; [7]): significantly reduced
subjects' assessment of MBL (MI measure #1) (women with menorrhagia [5]; [7]): significantly reduced
mean LPA score, change from baseline (women with menorrhagia [5]; 3.9 g/day, MI measure 3): significant treatment-related reductions
mean LSLA score, change from baseline (women with menorrhagia [5]; 3.9 g/day, MI measure 4): significant treatment-related reductions
proportion of responders (reduction in MBL and meaningful improvement, MI measure #6c) (women with menorrhagia [5]; 3.9 g/day, after first treated cycle, p<0.0001 vs placebo): 65.4%
regression slope of MBL response over six menstrual cycles (women with menorrhagia [5]; 3.9 g/day, p=0.615): −0.90 mL/cycle
calculated effect size, range over the four MI items ([6]; treatment group): −0.9 to −1.2
mean change in response from baseline to month 1, range over the four MI items ([6]; treatment group): −0.76 to −1.16
MI Item 1 self-perceived blood loss, Month 1 mean ([6]; treatment group, 3.9 g daily oral up to 5 days, score 1-4, n 126): 2.49
MI Item 2 limit you in your work, Month 1 mean [6, 8]: 2.12
MI Item 3 limit you in your physical activities, Month 1 mean [6, 8]: 2.13
MI Item 4 limit you in your social/leisure activities, Month 1 mean [6, 8]: 2.00
MI Item 1 self-perceived blood loss, mean change [6, 9]: −0.76
MI Item 2 limit you in your work, mean change [6, 9]: −0.93
MI Item 3 limit you in your physical activities, mean change [6, 9]: −1.16
MI Item 4 limit you in your social/leisure activities, mean change [6, 9]: −1.06
women on treatment who reported a meaningful improvement ([6]; treatment group, month 1, MI measure 6/6c): 78.6%
MI Item 2 limit you in your work, Effect Size [6, 10]: −0.939
MI Item 3 limit you in your physical activities, Effect Size [6, 10]: −1.221
MI Item 4 limit you in your social/leisure activities, Effect Size [6, 10]: −1.000
MI Item 1 self-perceived blood loss, Effect Size ([6]; treatment group, Cohen effect size, mean change / SD of baseline): −1.226
improvement in MI item 3 (physical activities) [6, 11]: 1.29
improvement in MI item 4 (social/leisure activities) [6, 11]: 1.17
